Results reported in publication PMC9222373 (2022).

Tested on: Apt-5 (unlabelled) (DNA, aptamer) AGCAGCACAGAGGTCAGATGGGATGTGAGGTGGCTCTCGTATCTATAGATTTTGGCGAGACCTATGCGTGCTACCGTGAA
Assay: AuNP aggregation colorimetry
Conditions: NaCl added after incubation (75 mM optimised); 37 °C, 1 h; 10 ng/mL toxin; 200 nM aptamer stock; insignificant colour change

| SMILES | binding |
| --- | --- |
| CCCC[C@@H](C)[C@@H](OC(=O)C[C@@H](CC(=O)O)C(=O)O)[C@H](C[C@@H](C)C[C@H](O)CCCC[C@@H](O)C[C@H](O)[C@H](C)N)OC(=O)C[C@@H](CC(=O)O)C(=O)O | no |
| C[C@H]1CCCC(=O)CCC/C=C/c2cc(O)cc(O)c2C(=O)O1 | no |
| C[C@@H]1Cc2c(Cl)cc(C(=O)N[C@@H](Cc3ccccc3)C(=O)O)c(O)c2C(=O)O1 | no |
